# Results published in patent publication US20240059740A1, “CYCLIC PEPTIDES AND USES THEREOF” (PRE[…] INC., priority 2020, published 2024).
# Residues, ends and D or L forms follow the SMILES beside them.
# How the values were obtained:
# 081024 cells = assay: MTT assay for cytotoxicity, 081024 oncospheres; assay type: cell-based, human; details: % viability of control
# From the text: The MTT (3-[4.5-dimethylthiazol-2-yl]-2,5═diphenyl tetrazolium bromide) assay is based on a process undertaken by living cells, involving the conversion of MTT into formazan crystals. This assay is used routinely to measure the in vitro cytotoxic effects of drugs on cell lines or primary patient cells (Van Meerloo et al., 2011). The MTT assay measures mitochondrial activity, so in some instances where the peptide activates mitochondrial response, the results appear to increase the number of cells present i.e. >100% cell viability.
# The aim of this experiment was to identify peptide concentrations that are active on living cells and cell viability was assessed.
# The glioblastoma multiforme (GBM) cell lines used were U87 and U251 cells and patient derived cells grown as oncospheres (081024 cells). Human adherent GBM cell lines U87 and U251 were cultured in RPMI medium (Life Technologies Melbourne Australia) supplemented with 5% v/v FBS, 100 U/mL penicillin and 100 μg/mL streptomycin. 081024 cells were cultrured in NeuroCult™ NS-A Proliferation medium with 0.2% (v/v) heparin, 20 ng/mL EGF and 10 ng/mL FGF.
# 8×10^3 U87 and 7×10^3 U251 cells per well were seeded in 96 well plates in 200 μL serum-containing RPMI medium and incubated at 37° C. with 5% CO2 for 24 hours. After one wash with serum-free medium, 100 μL serum-free medium with different concentration of peptide SEQ ID NO:1 was added to each well. After 48 hours incubation, 10 μL of 0.5 mg/mL MTT was added and incubated for 2 hours at 37° C. Formazan crystals were dissolved by 200 μL/well dimethyl sulfoxide (DMSO) and shaking for 15 minutes. The UV absorbance was read with an iMark™ microplate absorbance reader at 595 nm (Bio-Rad Laboratories). Background absorbance was subtracted and results expressed as the % viability of control (untreated cells).
# MMP-2 mRNA = assay: Real time RT-PCR, MMP-2 mRNA expression; assay type: cell-based, human
# From the text: The real-time reverse transcription polymerase chain reaction (RT-PCR) uses fluorescent reporter molecules to monitor the production of amplification products during each cycle of the PCR reaction. This combines the nucleic acid amplification and detection steps into one homogeneous assay and use of appropriate chemistries and data analysis eliminates the need for Southern blotting or DNA sequencing for amplicon identification. Its simplicity, specificity and sensitivity, together with its potential for high throughput and the ongoing introduction of new chemistries, more reliable instrumentation and improved protocols, has made real-time RT-PCR the benchmark technology for the detection and/or comparison of RNA levels.’
# In order to detect and quantify the expression of specific genes at mRNA level, real-time reverse transcriptase polymerase chain reaction (Real time RT-PCR) was performed. Total RNA of samples was isolated and purified using the PureLink® RNA Mini Kit (Life technologies). The concentration of total RNA was detected by NanoDrop 2000 Spectrophotometer (Thermo Scientific). The total RNA (2000 ng) was reverse transcribed using the High-Capacity cDNA Reverse Transcription Kit (Applied Biosystems™).
# The primers of target genes were TaqMan™ Gene Expression Assay for human PLAU (Hs01547054_m1), MMP-2 (Hs01548727_m1), MMP-9 (Hs00957562_m1), Snail-1 (Hs00195591_m1), Snail-2 (Hs00161904_m1), N-cadherin (Hs00983056_m1) and Twist (Hs01675818_s1). Relative quantification was done by reference to 18S ribosomal RNA (18S rRNA) and analysed using the comparative critical threshold (Ct) method
# The mRNA expression of MMPs was measured using qRT-PCR. This was tested three independent times; the results are shown in Tables 9, 10 and 11 for U251, U87 cells and O81024 cells respectively. Results are reported as percent of the control cells (no treatment). Both MMP-2 and uPA were decreased in U251 by SEQ ID NO.1.
compound,measurement,setting,value
"CC(C)C[C@@H]1NC(=O)[C@H](C)NC(=O)[C@@H](NC(=O)[C@@H]2CCCN2C(=O)[C@@H](N)CC(C)C)CSSC(C)(C)CNC(=O)CC[C@@H](C(=O)N[C@@H](CCCNC(=N)N)C(N)=O)NC(=O)[C@H](CC(=O)O)NC(=O)[C@H](CC(N)=O)NC1=O [SEQ ID NO: 1, Leu-Pro-c(SSA*-Ala-Leu-Asn-Asp-Glu)-Arg-NH2] (HELM PEPTIDE1{L.P.C.A.L.N.D.E.R.[am]}|CHEM1{[CC(C)(CN[*:2])S[*:1]]}$PEPTIDE1,CHEM1,3:R3-1:R1|PEPTIDE1,CHEM1,8:R3-1:R2$$$V2.0; N-terminus assumed)",Cell viability,081024 cells; 1 μM,104.2%
same,Cell viability,081024 cells; 5 μM,106.8%
same,Cell viability,081024 cells; 10 μM,106.7%
same,Cell viability,081024 cells; 50 μM,106.5%
same,Cell viability,081024 cells; 100 μM,106.9%
same,Cell viability,081024 cells; 500 μM,99.68%
same,Cell viability,081024 cells; 1 mM,89.58%
same,"mRNA expression, MMP-2","MMP-2 mRNA; 081024 cells, baseline expression level = 1",0.91
same,"mRNA expression, MMP-2","MMP-2 mRNA; U87 cells, baseline expression level = 1",0.84
same,"mRNA expression, MMP-2","MMP-2 mRNA; U251 cells, relative to control (no treatment), listed as SEQ ID NO. 1",0.72
same,"mRNA expression, MMP-2","MMP-2 mRNA; U251 cells, relative to control (no treatment), listed as SEQ ID NO.1",decreased
